Measurements taken from patent US9023623B2, “Method for preparing of allicin injection and low-temperature continuous stirring ultrafiltration device thereof” (Xinjiang Ailexin Pharmaceutical Co., Ltd., priority 2010, dated 2015).
≈ marks a conversion by molar mass, not a printed value.

Columns and labels:
[1] = tested on: Methicillin Resistant Staphylococcus Aureus (MRSA); test: Anti-pathogenic microorganism test; format: cell-based
Acinetobacter = test: Anti-pathogenic microorganism test; format: cell-based
Escherichia coli = test: Anti-pathogenic microorganism test; format: cell-based
Helicobacter pylori = test: Anti-pathogenic microorganism test; format: cell-based
Candida albicans = test: Anti-pathogenic microorganism test; format: cell-based
[2] = room temperature; background description; cited from earlier work
[3] = background description; cited from earlier work

MIC ([1]; Staphylococcus aureus): 10 to 30 µg/mL (≈ 61.6 to 185 µM)
MIC (Helicobacter pylori): 10 to 30 µg/mL (≈ 61.6 to 185 µM)
Compound: C=CCS[S+]([O-])CC=C (stereo not shown) [Allicin, thio-2-propene-1-sulfinic acid S-allyl ester]
bactericidal activity [1]: obviously bactericidal activity
bactericidal activity (Acinetobacter): obviously bactericidal activity
bactericidal activity (Escherichia coli): obviously bactericidal activity
bactericidal activity (Helicobacter pylori): obviously bactericidal activity
bactericidal activity (Candida albicans): obviously bactericidal activity
sensitivity to allicin (Candida albicans): sensitive
solubility in water [2]: slightly soluble in water
decomposition when exposed to air [3]: decomposes and deteriorates within a few hours
